Bridge positions count the residues as written; N and C are the ends. Ends that are not written are not given here.
Legend:
human KV1.3 channel = conditions: by blocking the central ion-conducting pore; ref [21], [22], [43]; cited from earlier work
From the text: Some α-KTxs are of significant interest because they potently block the human KV1.3 channel. […] However, despite their similar 3D fold and high sequence homology, the affinity of α-KTx toxins for KV1.3 varies over six orders of magnitude from picomolar to micromolar. Moreover, many of these toxins inhibit a number of different subtypes KV channels with high affinity, an undesirable attribute for peptides being considered for therapeutic use due to the ...

KV1.3 = conditions: cited from earlier work; for potency of native toxin on KV1.3: native toxins, ref [31]; for block of KV1.3 channels: ref [22], [30], [31]
From the text: Voltage-gated potassium (KV) channels are expressed in a wide range of cell types and tissues where they play key roles in physiological processes such as cell excitability, muscle contraction, and regulation of cardiac function. KV channels are composed of four α subunits that together form a functional channel. There are […] subfamilies of KV channels, with KV1.3 being one of eight subtypes in the KV1.x subfamily. […] We therefore measured the ability of rAgTx2 and rMgTx to block mouse KV1.3 (mKV1.3) and mouse KV1.1 (mKV1.1) channels stably expressed in L929 cells. […] The recombinant rAgTx2 and rMgTx inhibited mKV1.3 with simi ... || KV channels have diverse physiological functions; they play important roles in cell excitability, muscle contraction, regulation of neuronal and cardiac electrical functions, and propagation of action potentials. […] This has led to the hypothesis that compounds that selectively target KV1.3 channels could be used to treat autoimmune diseases. Consistent with this idea, ... || (+ 1 further places)

KV1.1 = conditions: ref [22], [30], [31]; cited from earlier work
From the text: We therefore measured the ability of rAgTx2 and rMgTx to block mouse KV1.3 (mKV1.3) and mouse KV1.1 (mKV1.1) channels stably expressed in L929 cells. […] The recombinant rAgTx2 and rMgTx inhibited mKV1.3 with simi ...

T lymphocytes = conditions: native toxins; ref [33], [34]; read-out: IC50 range previously described, T lymphocyte proliferation; cited from earlier work
Procedure: We next tested the ability of each recombinant peptides to block the proliferation of freshly-isolated human T lymphocytes, which are sensitive to KV1.3 channel blockers. […] These concentrations are within the range previously described for MgTx (∼5 nM) and AgTx2 (>5 nM), [34]. Thus the biological activities of rAgTx2 and rMgTx produced in P.pastoris are similar to the native toxins.

[1] = biological target: T1, mouse KV1.3 (mKV1.3) channels stably expressed in L929 cells (Mus musculus, UniProt P16390); test: Inhibition of mKV1.3 currents, whole-cell patch clamp; assay type: cell-based; conditions: room temperature, each data point mean of 3–5 determinations
T1 construct: expressed in transfected cells
T1 sequence (P16390 whole entry): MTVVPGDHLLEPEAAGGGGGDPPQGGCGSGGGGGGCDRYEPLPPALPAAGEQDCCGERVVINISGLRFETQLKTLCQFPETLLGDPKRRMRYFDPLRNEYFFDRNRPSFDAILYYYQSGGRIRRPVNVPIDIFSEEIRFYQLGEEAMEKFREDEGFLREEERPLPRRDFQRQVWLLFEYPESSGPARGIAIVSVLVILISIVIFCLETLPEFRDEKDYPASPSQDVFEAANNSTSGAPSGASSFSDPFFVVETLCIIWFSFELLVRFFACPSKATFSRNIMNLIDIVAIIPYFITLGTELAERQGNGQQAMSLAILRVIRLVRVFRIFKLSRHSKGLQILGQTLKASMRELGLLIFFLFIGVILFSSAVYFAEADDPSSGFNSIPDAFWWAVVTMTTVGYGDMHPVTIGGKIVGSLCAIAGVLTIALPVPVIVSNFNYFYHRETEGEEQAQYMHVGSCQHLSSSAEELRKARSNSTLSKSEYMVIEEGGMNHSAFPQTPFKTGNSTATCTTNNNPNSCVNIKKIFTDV
Procedure: (§1) L929 mouse fibroblast cells stably expressing mouse KV1.1 or mouse KV1.3 channels were kind gifts from Dr. George Chandy (University of California, Irvine). The cells were maintained in DMEM medium (Invitrogen, Carlsbad, CA, USA) supplemented with 10 IU/ml penicillin, 0.1 mg/ml streptomycin, 2 mM L-glutamine, 10% heat-inactivated fetal bovine serum, and 0.5 mg/ml G418 (EMD Chemicals, Gibbstown, NJ, USA). Freshly prepared buffy coats were purchased from the Gulf Coast Regional Blood Center (Houston, TX, USA) under a Baylor College of Medicine Institutional Review Board-approved protocol. Mononuclear cells were isolated from the buffy coats using Histopaque-1077 gradients (Sigma, St Louis, MI, USA) and used immediately or stored frozen in liquid nitrogen.
(§2) Experiments were conducted at room temperature using the whole-cell patch-clamp technique, as described previously. […] The bath solution contained (in mM): 160 NaCl, 4.5 KCl, 2 CaCl2, 1 MgCl2, 10 HEPES, pH 7.2, 300 mOsm. KV channel currents were elicited every 30 s by 200-ms depolarizing pulses from a holding potential of –80 mV to 40 mV. K d values and Hill coefficients were determined by fitting the Hill equation to the reduction of peak current measured at 40 mV.

human T lymphocytes = test: Proliferation of T lymphocytes, [3H] thymidine incorporation; assay type: cell-based; conditions: freshly-isolated human T lymphocytes, 60 ng/ml anti-CD3 antibody (OKT3), pre-incubated 45 min at 37°C, cultured 72 h, [3H] thymidine last 16–18 h; three independent experiments with cells from different donors
Procedure: as §1
Mononuclear cells (10^6/ml) were plated into 96-well microplates and pre-incubated with peptidic KV1.3 blockers for 45 min at 37°C in RPMI medium (Invitrogen) supplemented with 100 IU/ml penicillin, 0.1 mg/ml streptomycin, 2 mM L-glutamine, 1 mM sodium pyruvate, 1% non-essential amino acids, 1% RPMI vitamins, […] β-mercaptoethanol, and 1% heat-inactivated fetal bovine serum. […] [^3H] thymidine incorporation into the DNA of proliferating cells was measured using a β-scintillation counter (Beckman Coulter, Brea, CA, USA).

[2] = biological target: T2, mouse KV1.1 (mKV1.1) channels stably expressed in L929 cells (Mus musculus, UniProt P16388); test: Inhibition of mKV1.1 currents, whole-cell patch clamp; assay type: cell-based; conditions: room temperature, 200-ms pulses from -80 mV to 40 mV every 30 s, Hill fit to reduction of peak current at 40 mV, each data point mean of 3–5 determinations
T2 construct: expressed in transfected cells
T2 sequence (P16388 whole entry): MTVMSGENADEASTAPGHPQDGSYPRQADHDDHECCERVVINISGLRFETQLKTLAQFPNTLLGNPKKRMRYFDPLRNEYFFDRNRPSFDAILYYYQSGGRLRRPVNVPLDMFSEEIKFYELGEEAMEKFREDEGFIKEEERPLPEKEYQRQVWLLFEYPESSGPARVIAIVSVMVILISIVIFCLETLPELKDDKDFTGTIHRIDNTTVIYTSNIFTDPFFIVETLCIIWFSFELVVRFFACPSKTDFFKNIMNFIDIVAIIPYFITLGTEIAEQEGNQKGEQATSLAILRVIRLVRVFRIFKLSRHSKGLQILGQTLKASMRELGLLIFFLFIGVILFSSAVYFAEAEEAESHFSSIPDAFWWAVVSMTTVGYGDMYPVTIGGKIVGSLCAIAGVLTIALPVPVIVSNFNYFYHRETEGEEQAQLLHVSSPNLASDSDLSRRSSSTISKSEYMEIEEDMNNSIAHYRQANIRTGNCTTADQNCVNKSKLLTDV
Procedure: as §1, §2

[3] = tested on: acid sensing ion channel 1a; conditions: ref [49]; cited from earlier work
From the text: Recombinant production is the most cost-effective method for producing disulfide-rich peptides. The most common host for heterologous expression of venom peptides is E. coli, [47] but this often necessitates oxidative refolding of the peptides as the redox environment of the E. coli cytoplasm is not favorable for disulfide-bond formation. Higher yields of correctly folded toxin can often be obtained by exporting the peptides into periplasm of E. coli, where the cellular machinery for disulfide-bond formation is located [17]–[19]; however, the overall yield of recombi ...

[4] = 200-ms pulses from -80 mV to 40 mV every 30 s, Hill fit to reduction of peak current at 40 mV

## margatoxin (TIINVKCTSPKQCLPPCKAQFGQSAGAKCMNGKCKCYPH; UniProt P40755 1-39, looked up) [MgTx]
Human KV1.3 channel
  inhibition of KV1.3: potently inhibit KV1.3
KV1.3
  potency of native toxin on KV1.3: 30−100 pM
  block of KV1.3 channels: picomolar concentrations
KV1.1
  block of KV1.1 channels: picomolar concentrations
T lymphocytes
  IC50: ~5 nM

## BmKTX: native peptide, parent of ADWX-1 (VGINVKCKHSGQCLKPCKDAGMRFGKCINGKCDCTPK; ends and bridges not checked; cysteine pairing not given here; UniProt Q9NII7 23-59, looked up)
KV1.3; ref [44]
  IC50: 0.15 nM

## EFHHHHHHTIINVKCTSPKQCLPPCKAQFGQSAGAKCMNGKCKCYPH (disulfide 15-37, 21-42, 25-44) [rMgTx, recombinant margatoxin]
[1]; [4]
  IC50: 0.097 ± 0.003 nM
Human T lymphocytes
  IC50: ~6 nM
[2]
  IC50: 0.396 ± 0.041 nM

## PcTx1 (EDCIPKWKGCVNRHGDCCEGLECWKRRRSFEVCVPKTPKT; ends and bridges not checked; cysteine pairing not given here; UniProt P60514 1-40, looked up)
[3]
  block of acid sensing ion channel 1a: potent blocker

## agitoxin-2 [AgTx2]
Human KV1.3 channel
  inhibition of KV1.3: potently inhibit KV1.3
KV1.3
  potency of native toxin on KV1.3: 200 pM
  block of KV1.3 channels: picomolar concentrations
KV1.1
  block of KV1.1 channels: picomolar concentrations
T lymphocytes
  IC50: > 5 nM

## CC[C@H](C)[C@@H]1NC(=O)[C@@H]2CSSC[C@@H]3NC(=O)[C@H](CCCCN)NC(=O)[C@H](CCCNC(=N)N)NC(=O)[C@H](CC(N)=O)NC(=O)[C@H](CCSC)NC(=O)[C@H](CSSC[C@H](NC(=O)[C@H](CO)NC(=O)[C@@H](NC(=O)[C@H](CC(N)=O)NC(=O)[C@@H](NC(=O)[C@@H]4CCCN4C(=O)[C@@H](NC(=O)CNC(=O)[C@H](Cc4c[nH]cn4)NC(=O)[C@H](Cc4c[nH]cn4)NC(=O)[C@H](Cc4c[nH]cn4)NC(=O)[C@H](Cc4c[nH]cn4)NC(=O)[C@H](Cc4c[nH]cn4)NC(=O)[C@H](Cc4c[nH]cn4)NC(=O)[C@H](Cc4ccccc4)NC(=O)[C@@H](N)CCC(=O)O)C(C)C)[C@@H](C)CC)C(C)C)C(=O)N[C@@H]([C@@H](C)O)C(=O)NCC(=O)N[C@@H](CO)C(=O)N4CCC[C@H]4C(=O)N[C@@H](CCC(N)=O)C(=O)N2)NC(=O)[C@H](CCCCN)NC(=O)CNC(=O)[C@H](Cc2ccccc2)NC(=O)[C@H](CCCNC(=N)N)NC(=O)[C@H](CCSC)NC(=O)CNC(=O)[C@H](C)NC(=O)[C@H](CC(=O)O)NC(=O)[C@H](CCCCN)NC(=O)[C@H](CSSC[C@@H](C(=O)N[C@H](C(=O)N2CCC[C@H]2C(=O)N[C@@H](CCCCN)C(=O)O)[C@@H](C)O)NC(=O)[C@H](Cc2c[nH]cn2)NC3=O)NC(=O)[C@@H]2CCCN2C(=O)[C@H](CCCCN)NC1=O [rAgTx2, recombinant agitoxin-2]
[1]; [4]
  IC50: 0.201 ± 0.039 nM
Human T lymphocytes
  IC50: ~40 nM
[2]
  IC50: 0.144 ± 0.03 nM

## EFHHHHHHTIINVKCTSPKQCLPPCKAQFGQSAGAACMNGKCKCYPH (disulfide 15-37, 21-42, 25-44) [rMgTx-K28A]
[1]; K28A mutant, Hill fit to peak current at 40 mV
  IC50: 216 ± 24 nM

— publication PMC3530466, “Recombinant Expression of Margatoxin and Agitoxin-2 in Pichia pastoris: An Efficient Method for Production of KV1.3 Channel Blockers” (PLoS ONE, 2012)
